Measurements from article PMC6767236, “Selective Cannabinoid 2 Receptor Agonists as Potential Therapeutic Drugs for the Treatment of Endotoxin-Induced Uveitis” (Molecules, 2019).
Where two headings read alike, the source gives them in different places.

Assays:
[1] = Chemical stability (aqueous stability assay ASTA); type: physicochemical; settings: aqueous buffer, 37 °C
Procedure: Chemical Stability (= Aqueous Stability Assay ASTA)
ASTA is a fully automated assay to determine the 2 h stability of a molecule in aqueous conditions, over the pH range 1–10. Five different pH values are used and the solutions are heated at 37 °C. A compound is classified unstable if, after 2 h, less than 90% of the initial concentration can be found. Samples are first prepared on incubation plates and shaken initially for 10 min at 37 °C.
Solutions are then transferred to a filter plate (Millipore MSGVN2250, pore size 0.22 µm) and filtrated into V-bottom plates (from ABGene, AB-0800) that are heat-sealed prior to HPLC analysis. The procedure is performed a second time. However, the incubation time at 37 °C for the second plate is increased by 2 h. Samples are taken at time point 0 and 2 h and analyzed by HPLC. […]

human P-gp = settings: cited from earlier work
[2] = human and mouse liver microsomes; underlying data previously published; cited from earlier work
[3] = mouse, * previously published, cited from earlier work
[4] = * previously published; cited from earlier work
human CB1R [5] = target: T1, human CB1R (Homo sapiens, UniProt P21554); settings: * previously published; read-out: hCB1R: beta arrestin EC50; cited from earlier work
T1 construct: host or cells: CHO
T1 sequence (P21554 whole entry): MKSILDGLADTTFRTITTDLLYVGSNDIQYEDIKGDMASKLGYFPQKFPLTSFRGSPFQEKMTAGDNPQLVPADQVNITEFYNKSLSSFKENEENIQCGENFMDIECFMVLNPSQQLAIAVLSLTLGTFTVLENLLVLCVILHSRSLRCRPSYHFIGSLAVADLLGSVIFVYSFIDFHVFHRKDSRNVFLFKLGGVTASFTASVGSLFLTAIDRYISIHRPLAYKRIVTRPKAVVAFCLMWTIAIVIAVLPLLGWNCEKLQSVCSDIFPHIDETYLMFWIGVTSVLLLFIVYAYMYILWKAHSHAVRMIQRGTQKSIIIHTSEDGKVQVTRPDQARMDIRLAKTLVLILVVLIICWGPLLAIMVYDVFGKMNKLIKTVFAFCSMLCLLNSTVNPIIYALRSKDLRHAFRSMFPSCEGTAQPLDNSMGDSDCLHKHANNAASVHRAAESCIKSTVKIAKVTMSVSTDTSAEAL

human CB2R [6] = target: T2, human CB2R (Homo sapiens, UniProt P34972); settings: cited from earlier work
T2 construct: bgal (beta-galactosidase fragment of the PathHunter system, named only in the cell line's name); host or cells: CHO-K1 (CHOK1hCB2_bgal)
T2 sequence (P34972 whole entry, the tested form may be a part): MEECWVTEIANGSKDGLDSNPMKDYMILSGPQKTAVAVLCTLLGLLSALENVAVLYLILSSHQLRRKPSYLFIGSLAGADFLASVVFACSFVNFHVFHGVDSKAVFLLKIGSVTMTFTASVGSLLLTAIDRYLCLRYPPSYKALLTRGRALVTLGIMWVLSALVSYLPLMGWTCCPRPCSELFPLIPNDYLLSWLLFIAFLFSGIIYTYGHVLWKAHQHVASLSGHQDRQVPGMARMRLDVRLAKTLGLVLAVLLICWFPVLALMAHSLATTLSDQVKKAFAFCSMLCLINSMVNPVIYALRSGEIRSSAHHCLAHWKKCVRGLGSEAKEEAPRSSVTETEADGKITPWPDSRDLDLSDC

human CB1R [7] = target: T1, human CB1R; settings: * previously published, cited from earlier work
human CB2R [8] = target: T2, human CB2R; experiment: PathHunter β-arrestin recruitment assay, hCB2R; type: cell-based
Procedure: (§1) Assays were carried out using the PathHunter hCB1_bgal, hCB2_bgal, or mCB2_bgal CHOK1 β-arrestin recruitment assay kit (DiscoveRx, Fremont, CA, USA) as previously described. A total of 5000 cells per well were seeded in 384-well plates (Perkin Elmer, MA, USA) containing 20 μL cell culture medium and incubated for 16–18 h at 37 °C and 5% CO2. Cells were stimulated with 10 μM of each agonist or 11 increasing concentrations and incubated for 90 min at 37 °C and 5% CO2. […] The cells were incubated for 90 min at 37 °C and 5% CO2. Compounds in DMSO stock solutions were added using a HP D300 Digital Dispenser (Tecan, Mannedorf, Switzerland). The final concentration of organic solvent per assay point was ≤ 0.1%. The PathHunter Detection mixture was used, according to the manufacturer’s protocol, to determine the β-galactosidase enzyme activity. Detection mixture, 12 μL per well, was added and the plate was incubated for 1 h in the dark at room temperature. Chemiluminescence, indicated as relative light unit, was measured on an EnVision multilabel plate reader (Perkin Elmer, MA, USA).

human CB2R [9] = target: T2, human CB2R; settings: [3H]-CP55940 displacement; * previously published; read-out: hCB2R: Ki; cited from earlier work
CYP3A4 = CYP3A4 (Homo sapiens, UniProt P08684); experiment: Cytochrome P450 inhibition assay, CYP3A4; type: in vitro ADME; settings: read-out: IC50 CYP3A4
Chain of CYP3A4 (P08684 whole entry): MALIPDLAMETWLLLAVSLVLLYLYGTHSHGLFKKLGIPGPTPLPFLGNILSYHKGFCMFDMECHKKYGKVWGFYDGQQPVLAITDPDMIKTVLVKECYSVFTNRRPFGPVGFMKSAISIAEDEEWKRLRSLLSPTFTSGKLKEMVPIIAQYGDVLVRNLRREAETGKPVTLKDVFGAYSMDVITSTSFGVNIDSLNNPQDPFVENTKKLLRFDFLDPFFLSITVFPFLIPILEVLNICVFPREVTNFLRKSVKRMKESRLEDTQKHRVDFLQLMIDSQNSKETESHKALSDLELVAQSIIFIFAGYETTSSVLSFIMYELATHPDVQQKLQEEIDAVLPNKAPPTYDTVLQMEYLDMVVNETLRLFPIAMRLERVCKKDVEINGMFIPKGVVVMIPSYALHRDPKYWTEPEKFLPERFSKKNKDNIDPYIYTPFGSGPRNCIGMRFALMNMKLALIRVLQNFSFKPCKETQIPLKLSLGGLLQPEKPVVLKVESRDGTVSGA

CYP2D6 = CYP2D6 (Homo sapiens, UniProt P10635); experiment: Cytochrome P450 inhibition assay, CYP2D6; type: in vitro ADME; settings: read-out: IC50 CYP2D6
Chain of CYP2D6 (P10635 whole entry, the tested form may be a part): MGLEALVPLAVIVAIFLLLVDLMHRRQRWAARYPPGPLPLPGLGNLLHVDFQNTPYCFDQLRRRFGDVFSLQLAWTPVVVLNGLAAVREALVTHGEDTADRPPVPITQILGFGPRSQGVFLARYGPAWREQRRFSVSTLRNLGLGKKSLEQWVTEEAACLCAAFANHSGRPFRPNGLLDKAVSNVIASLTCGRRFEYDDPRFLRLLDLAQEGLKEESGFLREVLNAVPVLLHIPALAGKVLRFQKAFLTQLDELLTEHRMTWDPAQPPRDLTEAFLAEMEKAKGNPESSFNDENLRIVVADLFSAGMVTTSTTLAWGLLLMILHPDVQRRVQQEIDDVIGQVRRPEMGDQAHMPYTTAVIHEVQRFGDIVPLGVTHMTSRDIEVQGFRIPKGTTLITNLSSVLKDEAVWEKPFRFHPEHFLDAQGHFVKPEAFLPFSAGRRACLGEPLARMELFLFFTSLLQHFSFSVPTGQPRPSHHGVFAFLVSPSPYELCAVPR

mouse CB2R = mouse CB2R (Mus musculus, UniProt P47936); experiment: cell-based; type: cell-based; parameters: bgal (beta-galactosidase fragment of the PathHunter system, named only in the cell line's name); host or cells: CHO-K1 (CHOK1mCB2_bgal)
Chain of mouse CB2R (P47936 whole entry, the tested form may be a part): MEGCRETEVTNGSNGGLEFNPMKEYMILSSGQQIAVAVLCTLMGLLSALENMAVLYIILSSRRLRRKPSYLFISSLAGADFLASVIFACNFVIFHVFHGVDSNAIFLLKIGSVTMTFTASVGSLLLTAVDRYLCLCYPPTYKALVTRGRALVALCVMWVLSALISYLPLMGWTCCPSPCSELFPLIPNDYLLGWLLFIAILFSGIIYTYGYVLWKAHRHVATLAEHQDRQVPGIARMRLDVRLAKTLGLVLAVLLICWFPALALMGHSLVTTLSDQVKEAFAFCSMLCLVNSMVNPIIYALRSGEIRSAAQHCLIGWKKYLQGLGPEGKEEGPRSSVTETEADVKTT
Procedure: as §1

[10] = cited from earlier work
[11] = underlying data previously published
[12] = oral, HU308 5 mg/kg, others 3 mg/kg

Compound: Cc1nc([C@](C)(CC2CC2)NC(=O)c2cc(OCC(F)(F)F)c(C3CC3)cn2)no1 [RO6871085, 5-Cyclopropyl-N-[(2S)-1-cyclopropyl-2-(5-methyl-1,2,4-oxadiazol-3-yl)propan-2-yl]-4-(2,2,2-trifluoroethoxy)pyridine-2-carboxamide]
- remaining at 2 h ([1]; pH 1, 2 h, read-out: Chemical Stability in Aqueous Buffer at pH 1 (% remaining after 2 h at 37 °C)): 99%
- remaining at 2 h ([1]; pH 4, 2 h, read-out: Chemical Stability in Aqueous Buffer at pH 4 (% remaining after 2 h at 37 °C)): 99%
- remaining at 2 h ([1]; pH 6.5, 2 h, read-out: Chemical Stability in Aqueous Buffer at pH 6.5 (% remaining after 2 h at 37 °C)): 97%
- remaining at 2 h ([1]; pH 8, 2 h, read-out: Chemical Stability in Aqueous Buffer at pH 8 (% remaining after 2 h at 37 °C)): 99%
- remaining at 2 h ([1]; pH 10, 2 h, read-out: Chemical Stability in Aqueous Buffer at pH 10 (% remaining after 2 h at 37 °C)): 99%
- P-glycoprotein-Mediated Efflux Extraction Ratio human (human P-gp; human P-gp, * previously published): 1.4
- P-gp substrate, human (human P-gp; [11]): not a P-gp substrate
- clearance in human as well as mouse microsomes (class in words) [2]: low to medium clearances
- F ([3]; oral 3 mg/kg): 68%
- T1/2 [3, 12]: 8.42 h
- Tmax [3, 12]: 0.5 h
- LogD (at pH 7.4) [4]: 3.94
- EC50 (human CB1R [5]): > 30000 nM
- EC50 (human CB2R [6]; * previously published, read-out: hCB2R: cAMP EC50): 8 nM
- hCB1R cAMP EC50/hCB2R cAMP EC50 (human CB2R [6]; functional selectivity, * previously published): 174 *
- hCB2R: cAMP efficacy (human CB2R [6]; relative to 1 µM CP55940, * previously published): 88%
- functional behaviour in hCB2R cAMP assay (human CB2R [6]; [11]): full agonists
- EC50 (human CB1R [7]; read-out: hCB1R: cAMP EC50): 1450 nM
- hCB1R: cAMP efficacy (human CB1R [7]; second number of the cell, relative to 1 µM CP55940): 38%
- functional behaviour in hCB2R β-arrestin assay (human CB2R [8]): partial agonist
- hCB1R beta arrestin EC50/hCB2R beta arrestin EC50 (human CB2R [8]): >545
- hCB2R: beta arrestin efficacy (human CB2R [8]): 51%
- EC50 (human CB2R [8]; read-out: hCB2R: beta arrestin EC50): 55 nM
- Ki (human CB2R [9]): 76 nM
- IC50 (CYP3A4): 37000 nM
- IC50 (CYP2D6): 34000 nM
- activity in mouse CB2R β-arrestin assay (mouse CB2R): not active
- EC50 (mouse CB2R; read-out: mouse CB2R: beta arrestin EC50): > 30000 nM
- Hepatocyte Clearance mouse ([10]; mouse hepatocytes, * previously published): 27 μL/min/Mio cells
- clearance in mouse hepatocytes (class in words) [10, 11]: medium
